From US10845371B2, “Soluble MANF in pancreatic beta-cell disorders” (University of Massachusetts, priority 2012, dated 2020)
Ends that are not written are not given here. Peptide text beside a SMILES is read from it. * marks the point of attachment. Cbz = O=C(OCc1ccccc1)*

Key:
[1] = test system: MEROS-GFP (ER redox state) in INS-1 832/13 cells; experiment: MEROS-GFP pilot screen of 1280-compound library and follow-up screens; format: cell-based, rat; settings: 0.2 mM DTT challenge for 2 hours, 96-well plates; untreated 0.037
Experimental: A pilot screen of a 1280-compound library (MicroSource), a collection of 1,040 U.S. drugs and 240 international drugs (FIG. 39) was performed. In this experiment, INS-1 832/13 cells stably-expressing MEROS-GFP were seeded (20,000 cells/well) in black optical 96-well plates. After 24 hours, 2 μL of each compound was added using the TeMo liquid handling robot. After another 24 hours, cells were challenged with 0.2 mM DTT, a strong reducing agent, for 2 hours, and then the MEROS-GFP ratio was calculated.

[2] = test system: MEROS-GFP (ER redox state) in INS-1 832/13 cells; experiment: MEROS-GFP ratio by flow cytometry in INS-1 832/13 cells; format: cell-based, rat; settings: for Median MEROS-GFP ratio (FACS): normalized to untreated, DTT 0.2-10 mM, 1 mM H2O2 30 min, TM 5 μM, TG 10 nM 24 h or 1 μM 4 h, BreA 100 ng/mL, MG132, palmitate 0.2-0.5 mM, hIAPP 10 μM, 24 h, FIGS. 17-24
Experimental: FIG. 15 is fluorescence-assisted cell sorting (FACS) data of INS-1 832/13 cells stably-transfected with MEROS-GFP following no treatment or treatment with DTT (0.2, 0.5, or 10 mM DTT). The data was collected using excitation wavelengths of 488 nm and 405 nm, and an emission spectrum of 510 nm.
FIG. 16 is a histogram of FACS data of INS-1 832/13 cells stably-transfected with MEROS-GFP following no treatment or treatment with DTT (0.2 mM, 0.5 mM, or 10 mM DTT). The horizontal axis represents the MEROS-GFP ratio and the vertical axis represents the number of cells.
FIG. 17 is a graph of the median MEROS-GFP ratio in INS-1 832/13 cells stably-transfected with MEROS-GFP following no treatment or treatment with DTT (0.2, 0.5, or 10 mM DTT). The MEROS-GFP values shown are normalized to the untreated values.
FIG. 18 is two graphs showing data from FACS analysis of INS-1 832/13 cells stably-transfected with MEROS-GFP following no treatment or treatment with 1 mM H2O2 for 30 minutes. The right graph is a histogram of the MEROS-GFP ratio in INS-1 832/13 cells not treated or treated with 1 mM H202.
FIG. 19 is a graph of the median MEROS-GFP ratio calculated in INS-1 832/13 cells using FACS analysis following no treatment or treatment with tunicamycin (TM) (5 μM; 24 hours), thapsigargin (TG) (10 nM; 24 hours), TG (1 μM; 4 hours), brefeldin A (BreA) (100 ng/mL; 24 hours), or MG132 ([…]; 24 hours). […] The data are normalized to the median MEROS-GFP ratio calculated for the untreated cells.
The error bars represent ±S.D. The data are normalized to the median MEROS-GFP ratio calculated for the untreated cells.
FIG. 24 is a graph of the median MEROS-GFP ratio in INS-1 832/13 cells left untreated or treatment with human islet amyloid polypeptide (IAPP) (10 μM; 24 hours), mouse IAPP (10 μM; 24 hours), or cytokines ([…] (5 ng/mL), INFγ (100 ng/mL), and TNFα (25 ng/mL); 24 hours)). The error bars represent ±S.D. The data are normalized to the median MEROS-GFP ratio calculated for the untreated cells.
Flow cytometry was used to precisely monitor the MEROS-GFP ratio in vivo.
Experiments were performed to study the relationship between the UPR and the heterogeneity of the redox state. In these experiments, both the redox state and the activation levels of the UPR were monitored in the same cells. To achieve this, a UPR reporter gene encoding the red fluorescent protein, mCherry, driven by the human BiP promoter was constructed. […] This BiP-mCherry reporter plasmid was transfected into INS-1 832/13 cells expressing MEROS-GFP, and FACS analysis was used to monitor the MEROS-GFP ratio and the activation levels of the UPR via BiP-mCherry in the same cells (FIG. 31). The activation levels of BiP-mCherry and the MEROS-GFP ratio were monitored following the induction of ER stress. In these experiments, INS-1 832/13 cells expressing MEROS-GFP were plated onto 6-well plates, treated with each compound for indicated times, and then harvested by trypsinization. After washing with phosphate buffered saline, cells were resuspended in the 11 mM glucose-Hanks buffered salt solution. Flow cytometry analyses were performed with LSRII (BD).

[3] = test system: MEROS-GFP (ER redox state) in NSC34 cells; experiment: Time course of MEROS-GFP ratio in NSC34 cells; format: cell-based; settings: 1 mM DTT for 10 minutes, then wash, FIG. 14
Experimental: FIG. 14 is a graph showing a time course of the MEROS-GFP ratio in NSC34 cells that are treated with 1 mM DTT for 10 minutes, and then washed. The MEROS-GFP ratio was calculated at each minute interval between one minute prior to treatment to four minutes after the wash. The bottom line represents the fluorescence observed with excitation at 473 nm, the black line represents the MEROS-GFP ratio, and the light grey line represents the fluorescence with excitation at 394 nm (n=3; S.D.).
The MEROS-GFP ratio was also monitored in DTT-treated cells at different time points.

[4] = test system: MEROS-GFP (ER redox state) in INS-1 832/13 cells; experiment: MEROS-GFP ratio by fluorescent plate reader in INS-1 832/13 cells; format: cell-based, rat; settings: 30 minutes; H2O2 0.1 or 1 mM, DTT 0.1-10 mM, FIG. 12
Experimental: FIG. 12 is a graph of the MEROS-GFP ratio in INS-1 832/13 cells left untreated (no label), or treated with H2O2 (1 or 0.1 mM H2O2) or DTT (0.1, 0.2, 0.5, 1, 2, 5, or 10 mM DTT). The MEROS-GFP ratio was determined using a plate reader. The data shown are mean±S.D. (n=3).
The ratio between fluorescence from excitation 473 nm versus 394 nm normalized to wild-type untreated cells is called the MEROS-GFP ratio. The MEROS-GFP ratio was determined using a fluorescent plate reader. In these experiments, the INS-1 832/13 cells were plated onto a 96-well plate at 50,000 cells/well, the cells treated with H2O2 or DTT at various concentrations for 30 minutes, and the fluorescence at excitation wavelength 473 nm and emission wavelength 510 nm (for reduced MEROS-GFP) or at excitation wavelength 394 nm and emission wavelength 510 nm (for oxidized MEROS-GFP) was measured. The MEROS-GFP ratio was determined after substraction of background signal.

[5] = test system: MEROS-GFP in INS-1 832/13 cells; experiment: Non-reducing SDS-PAGE of AMS-modified MEROS-GFP; format: cell-based, rat; settings: 2 mM DTT, FIG. 13
Experimental: FIG. 13 is photograph of non-reducing polyacrylamide gel electrophoresis (PAGE) of 4-acetamido-4′-maleimidylstilbene-2, 2′-disulfonic acid (AMS)-modified MEROS-GFP in lysate from cells left untreated (left lane) or treated with 2 mM DTT (right lane). The lysates were either left untreated (−βME) (top) or were treated with β-mercaptoethanol (+βME) (bottom) prior to electrophoresis.
Additional experiments were performed to confirm that the MEROS-GFP ratio reflected changes in its redox state in vivo. In these experiments, the redox state of MEROS-GFP was monitored using non-reducing SDS-PAGE in combination with the thiol-alkylating reagent, 4-acetamido-4′-maleimidylstilbene-2, 2′-disulfonic acid (AMS). In these experiments, INS-1 832/13 cells left untreated or treated with 2 mM DTT, were lysed with 1× SDS-PAGE sample buffer containing 25 mM AMS with or without 2-β-mercaptoethanol, boiled at 95° C. for 10 minutes, electrophoresed using SDS-PAGE, and immunoblotted using an anti-GFP antibody.

[6] = test system: MEROS-GFP in INS-1 832/13 cells; experiment: Confocal microscopy of MEROS-GFP fluorescence; format: cell-based, rat; settings: 2 mM DTT, FIG. 11
Experimental: FIG. 11 is a set of four confocal microscopy images of MEROS-GFP gathered using a 476-nm excitation wavelength (bottom two panels) or a 405-nm excitation wavelength (top two panels) in INS-1 832/13 cells treated with (right two panels) or without (left two panels) 2 mM DTT.

INS-1 832/13 cells = experiment: Percentage of reduced cells (MEROS-GFP ratio >2) by flow cytometry after fatty acids; format: cell-based, rat; settings: 0.5 mM palmitate plus 0.5 mM oleic or linoleic acid, 24 hours, FIG. 30
Source text: The y-axis represents fluorescence following excitation using 488 nm and the x-axis represents fluorescence following excitation using 405 nm.
The data for cells treated with palmitate is shifted to the right.
The error bars indicate ±standard deviation (**p<0.01).

MANF [7] = experiment: MANF protein (immunoblot) and mRNA (real-time PCR) in INS-1 832/13 cells treated with ER stress inducers; format: cell-based, rat; settings: 24 hours; for MANF mRNA levels: 5 μM tunicamycin or 20 nM thapsigargin, FIG. 2
Experimental: FIG. 1 is an immunoblot showing the levels of MANF protein in concentrated medium from a culture of a rat pancreatic β-cell line (INS-1 832/13) or in lysate from the rat pancreatic β-cell line (INS-1 832/13) after no treatment or treatment with thapsigargin (50 nM) or tunicamycin (0.5 μg/mL) for 24 hours.
FIG. 2 is a graph showing the relative expression of MANF mRNA in a rat pancreatic β-cell line (INS-1 832/13) cultured under the following conditions: 11 mM glucose (24 hours); 25 mM glucose (24 hours); 25 mM glucose (48 hours); 25 mM glucose (72 hours); 11 mM glucose and 5 μM tunicamycin (TM) (24 hours); or 11 mM glucose and 20 nM thapsigargin (Tg) (24 hours). The data shown were generated using quantitative real-time PCR (n=3, S.D.).
(§1) Experiments were performed to determine if expression of soluble MANF is induced in pancreatic β-cells in response to endoplasmic reticulum stress. These experiments were performed using rodent pancreatic β-cell lines (INS-1 832/13 and MIN6), primary mouse and human islets, and two different chemical agents that induce endoplasmic reticulum stress (thapsigargin and tunicamycin). INS-1 832/13 cells were cultured in RPMI-1640 containing 10% fetal bovine serum, penicillin, streptomycin, sodium pyruvate, and 0.1% β-mercaptoethanol. Primary islets were obtained from Prodo, and plated into 6-well plates precoated with laminin V produced by 804G cells, and cultured in CMRL medium supplemented with fetal bovine serum, non-essential amino acids, sodium pyruvate, and antibiotics.

MANF [8] = experiment: MANF mRNA and soluble MANF protein in human primary islets treated with thapsigargin; format: cell-based; settings: thapsigargin 0.25 μM, 24 hours
Experimental: The data shown were generated using quantitative real-time PCR (n=3; S.D.).
In this experiment, human MANF was immunoprecipitated using a rabbit anti-human MANF antibody (Proteintech), and the same antibody was used to develop the immunoblot.
as §1
(§2) A second set of experiments were performed using human primary islets from two human donors.

MANF [9] = experiment: MANF mRNA in mouse primary islets treated with thapsigargin (real-time PCR); format: cell-based; settings: 0.5 μM thapsigargin, 6 hours, FIG. 3
Experimental: FIG. 3 is a graph showing the relative expression of MANF, WFS1, TXNIP, and CHOP mRNA in mouse primary islets cultured five days with 5 mM glucose (LG), 11 mM glucose (MG), or 25 mM glucose (HG), or five days with 5 mM glucose (LG) and 6 hours with 0.5 μM thapsigargin (TG). The data shown were generated using quantitative real-time PCR (n=3; S.D.).
as §1, §2

## O[C@H](CS)[C@H](O)CS (racemic) [DTT, dithiothreitol]
[1]
  Average MEROS-GFP ratio in the pilot screen: 0.069 (S.D. =0.006)
[2]; DTT 0.2, 0.5, 10 mM, FIGS. 15 and 16
  Ratio of fluorescence from excitation at 488 nm versus 405 nm (FACS): dose dependent increase
[2]
  Median MEROS-GFP ratio (FACS): increased the median MEROS-GFP ratio in a dose-dependent manner
[3]
  Time to reduction of the ER (MEROS-GFP ratio): ER could be reduced within a few minutes
[4]
  MEROS-GFP ratio (plate reader): increased the MEROS-GFP ratio in a dose-dependent manner
[5]
  Redox state of MEROS-GFP (AMS, non-reducing SDS-PAGE): fully reduced MEROS-GFP in vivo
[6]
  MEROS-GFP fluorescence from 476 nm excitation: significantly increased

## C[C@H]1CCC/C=C/[C@@H]2C[C@H](O)C[C@H]2[C@H](O)/C=C/C(=O)O1 [brefeldin A]
[2]
  Median MEROS-GFP ratio (FACS): increased

## human islet amyloid polypeptide (hIAPP): human islet amyloid polypeptide, physiological inducer of ER stress (KCNTATCATQRLANFLVHSSNNFGAILSSTNVGSNTY; not fully specified (C-terminus, bridges); cysteine pairing not given here; UniProt P10997 34-70, looked up)
[2]
  Median MEROS-GFP ratio (FACS): increased

## CCCCC/C=C\C/C=C\CCCCCCCC(=O)O [linoleic acid]
INS-1 832/13 cells
  Palmitate-induced reduced ER (percentage of reduced cells): significantly suppressed the ability of palmitate to create a reduced ER

## CC(C)C[C@@H](C=O)NC(=O)[C@H](CC(C)C)NC(=O)[C@H](CC(C)C)NC(=O)OCc1ccccc1 [MG 132] (Cbz-Leu-Leu-Leu-aldehyde)
[2]
  Median MEROS-GFP ratio (FACS): increased

## CCCCCCCC/C=C\CCCCCCCC(=O)O [oleic acid]
INS-1 832/13 cells
  Palmitate-induced reduced ER (percentage of reduced cells): significantly suppressed the ability of palmitate to create a reduced ER

## OO [H2O2]
[2]
  Median MEROS-GFP ratio (FACS): did not change the MEROS-GFP ratio
[4]
  MEROS-GFP ratio (plate reader): did not change the MEROS-GFP ratio

## C/C=C(/C)C(=O)O[C@H]1C(C)=C2[C@H]([C@@H]1OC(=O)CCCCCCC)[C@@](C)(OC(C)=O)C[C@H](OC(=O)CCC)[C@@]1(O)[C@H]2OC(=O)[C@@]1(C)O [thapsigargin]
[2]
  Median MEROS-GFP ratio (FACS): increased
MANF [7]
  MANF mRNA levels: Elevated levels of MANF mRNA
MANF [7]; thapsigargin 50 nM, FIG. 1
  Soluble MANF protein in the medium: detected in the medium
MANF [8]; FIGS. 5 and 6
  Soluble MANF protein in the extracellular medium: production and release of soluble MANF protein into the extracellular medium
MANF [8]; two donors, FIG. 4
  MANF mRNA expression: significant increase in MANF mRNA expression
MANF [9]
  MANF mRNA expression: significant increase in MANF mRNA expression

## tunicamycin
[2]
  Median MEROS-GFP ratio (FACS): increased
MANF [7]
  MANF mRNA levels: Elevated levels of MANF mRNA
